Data as given in ChEMBL document CHEMBL4616632, “Discovery of Cyclic Boronic Acid QPX7728, an Ultrabroad-Spectrum Inhibitor of Serine and Metallo-β-lactamases” (J Med Chem, 2020).

Assays:
Acinetobacter baumannii [1] = assay: Inhibition of Acinetobacter baumannii AB1053 OXA-72 assessed as minimum concentration of compound needed to reduce the MIC of meropenem to 8 ug/ml
Escherichia coli [2] = assay: Inhibition of Escherichia coli KP308 SHV-5 assessed as minimum concentration of compound required to reduce the MIC of aztreonam to 4 ug/ml
Klebsiella pneumoniae [3] = assay: Potentiation of meropenem-induced antibacterial activity against carbapenem-resistant Klebsiella pneumoniae assessed as meropenem MIC50 at 8 ug/ml by broth microdilution method (reference value: 32 ug/ml); assay type: functional
Chymase = Chymase (Homo sapiens, UniProt P23946); assay: Inhibition of mammalian chymase (unknown origin) using Suc-AAPF-AMC as substrate preincubated for 10 mins followed by substrate addition measured after 30 mins
Chain of Chymase (P23946 whole entry): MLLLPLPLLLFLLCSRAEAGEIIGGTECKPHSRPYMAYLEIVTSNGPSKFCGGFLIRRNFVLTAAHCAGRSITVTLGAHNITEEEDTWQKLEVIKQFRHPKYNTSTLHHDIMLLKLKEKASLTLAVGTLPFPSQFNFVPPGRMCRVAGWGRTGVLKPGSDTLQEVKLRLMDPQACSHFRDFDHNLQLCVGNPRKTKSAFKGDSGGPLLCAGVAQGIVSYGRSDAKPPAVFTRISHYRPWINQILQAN

Enterobacteriaceae [4] = assay: Inhibition of NDM/VIM in carbapenem-resistant Enterobacteriaceae assessed as potentiation of cefepime-induced antibacterial activity by measuring cefepime MIC90 at 8 ug/ml by broth microdilution method (Rvb > 32 ug/ml)
Enterobacterales [5] = assay: Potentiation of meropenem-induced antibacterial activity against Enterobacterales assessed as meropenem MIC50 at 8 ug/ml by broth microdilution method (reference value: 1 ug/ml); assay type: functional
Chymotrypsin = Chymotrypsin (Homo sapiens, UniProt Q99895+P17538+P40313+Q6GPI1); assay: Inhibition of mammalian chymotrypsin (unknown origin) using Suc-AAPF-AMC as substrate preincubated for 10 mins followed by substrate addition measured after 30 mins; assay type: protein assay
Enterobacterales [6] = assay: Potentiation of ceftolozane-induced antibacterial activity against Enterobacterales assessed as ceftolozane MIC90 at 8 ug/ml by broth microdilution method (Rvb > 32 ug/ml); assay type: functional
Klebsiella pneumoniae [7] = assay: Inhibition of Klebsiella pneumoniae KP1160 IMP-26 assessed as minimum concentration of compound needed to reduce the MIC of meropenem to 1 ug/ml
[8] = Cmax in rat at 10 mg/kg, iv administered as infusion for 0.5 hrs by HPLC/MS analysis; assay type: ADME, organism-based; set-up: dose 10 mg/kg, route intravenous; details: in vivo
Escherichia coli [9] = assay: Inhibition of Escherichia coli EC302 TEM-10 assessed as minimum concentration of compound needed to reduce the MIC of aztreonam to 4 ug/ml
Klebsiella pneumoniae [10] = assay: (§1) Potentiation of meropenem-induced bacteriostatic activity against carbapenem-resistant Klebsiella pneumoniae KP1244 harboring KPC-3, SHV-11, and SHV-12 infected in Swiss-Webster mouse model of neutropenic thigh infection assessed as log change in bacterial count in thigh at 0.5 mg/kg, ip administered at 2 hrs interval for 24 hrs starting from 2 hr post infection and measured post last dose (reference value: 0.62 log10CFU); assay type: functional
[11] = Cmax in rat at 300 mg/kg, po administered via gavage by HPLC/MS analysis; assay type: ADME, organism-based; set-up: dose 300 mg/kg, route oral; details: in vivo
Enterobacteriaceae [12] = assay: Inhibition of OXA-48 in carbapenem-resistant Enterobacteriaceae assessed as potentiation of ceftolozane-induced antibacterial activity by measuring ceftolozane MIC90 at 8 ug/ml by broth microdilution method (Rvb > 32 ug/ml)
Enterobacter cloacae = assay: Inhibition of Enterobacter cloacae ECL1002 AmpC assessed as minimum concentration of compound needed to reduce the MIC of aztreonam to 4 ug/ml
[13] = Oral bioavailability in rat at 30 mg/kg administered via gavage by HPLC/MS analysis; assay type: ADME, organism-based; details: in vivo
Acinetobacter baumannii [14] = assay: Potentiation of cefepime-induced antibacterial activity against carbapenem-resistant Acinetobacter baumannii assessed as cefepime MIC90 at 8 ug/ml by broth microdilution method (Rvb > 32 ug/ml); assay type: functional
Enterobacteriaceae [15] = assay: Potentiation of ceftolozane-induced antibacterial activity against carbapenem-resistant Enterobacteriaceae assessed as ceftolozane MIC90 at 8 ug/ml by broth microdilution method (Rvb > 32 ug/ml); assay type: functional
Cathepsin G = Cathepsin G (Homo sapiens, UniProt P08311); assay: Inhibition of mammalian cathepsin G (unknown origin) using Suc-AAPF-AMC as substrate preincubated for 10 mins followed by substrate addition measured after 30 mins
Chain of Cathepsin G (P08311 whole entry, the tested form may be a part): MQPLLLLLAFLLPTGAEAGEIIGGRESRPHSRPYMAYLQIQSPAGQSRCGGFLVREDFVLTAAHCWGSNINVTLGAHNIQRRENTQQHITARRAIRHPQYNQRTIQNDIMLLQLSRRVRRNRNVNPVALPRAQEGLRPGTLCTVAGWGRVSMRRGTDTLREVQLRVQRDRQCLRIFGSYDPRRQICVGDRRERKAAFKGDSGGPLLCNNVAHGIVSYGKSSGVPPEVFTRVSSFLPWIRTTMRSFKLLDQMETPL

[16] = Half life in rat at 300 mg/kg, iv administered as infusion for 0.5 hrs by HPLC/MS analysis; assay type: ADME, organism-based; details: in vivo
[17] = Protein binding in human plasma; assay type: ADME, cell-free; details: read-out: PPB (converted)
Enterobacteriaceae [18] = assay: Inhibition of NDM/VIM in carbapenem-resistant Enterobacteriaceae assessed as potentiation of cefepime-induced antibacterial activity by measuring cefepime MIC50 at 8 ug/ml by broth microdilution method (Rvb > 32 ug/ml)
[19] = target: Beta-lactamase (Klebsiella pneumoniae) (UniProt Q93LQ9); assay: Inhibition of Klebsiella pneumoniae KP1004 KPC-2 assessed as minimum concentration of compound needed to reduce the MIC of aztreonam to 4 ug/ml
Chain of Beta-lactamase (Klebsiella pneumoniae) (Q93LQ9 as listed by the source): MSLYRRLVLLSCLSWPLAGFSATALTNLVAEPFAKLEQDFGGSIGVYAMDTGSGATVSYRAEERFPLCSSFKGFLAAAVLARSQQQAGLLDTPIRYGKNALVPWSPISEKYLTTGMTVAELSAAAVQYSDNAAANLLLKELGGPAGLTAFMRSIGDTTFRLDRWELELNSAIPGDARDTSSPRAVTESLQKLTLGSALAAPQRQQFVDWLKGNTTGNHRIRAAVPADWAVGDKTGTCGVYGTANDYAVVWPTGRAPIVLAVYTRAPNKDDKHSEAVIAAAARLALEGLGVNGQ

Enterobacteriaceae [20] = assay: Potentiation of cefepime-induced antibacterial activity against carbapenem-resistant Enterobacteriaceae assessed as cefepime MIC90 at 8 ug/ml by broth microdilution method (Rvb > 32 ug/ml); assay type: functional
[21] = Protein binding in rat plasma; assay type: ADME, cell-free; details: read-out: PPB (converted)
Prothrombin = Prothrombin (Homo sapiens, UniProt P00734); assay: Inhibition of mammalian thrombin (unknown origin) using Benz-FVR-AMC as substrate preincubated for 10 mins followed by substrate addition measured after 30 mins
Enterobacteriaceae [22] = assay: Potentiation of meropenem-induced antibacterial activity against carbapenem-resistant Enterobacteriaceae assessed as meropenem MIC50 at 8 ug/ml by broth microdilution method (reference value: 8 ug/ml); assay type: functional
Klebsiella pneumoniae [23] = assay: Potentiation of ceftolozane-induced antibacterial activity against carbapenem-resistant Klebsiella pneumoniae assessed as ceftolozane MIC50 at 8 ug/ml by broth microdilution method (Rvb > 32 ug/ml); assay type: functional
Klebsiella pneumoniae [24] = assay: as §1, with “25” for “0.5”; assay type: functional
[25] = Inhibition of recombinant Escherichia coli CTX-M-14 using nitrocefin as substrate preincubated for 10 mins followed by substrate addition measured every 10 secs for 10 mins by spectrophotometrically analysis
Enterobacteriaceae [26] = assay: Inhibition of OXA-48 in carbapenem-resistant Enterobacteriaceae assessed as potentiation of meropenem-induced antibacterial activity by measuring meropenem MIC50 at 8 ug/ml by broth microdilution method (reference value: 32 ug/ml)
Acinetobacter baumannii [27] = assay: Potentiation of ceftolozane-induced antibacterial activity against carbapenem-resistant Acinetobacter baumannii assessed as ceftolozane MIC50 at 8 ug/ml by broth microdilution method (Rvb > 32 ug/ml); assay type: functional
[28] = target: Angiotensin-converting enzyme 2 (Homo sapiens, UniProt Q9BYF1); assay: Inhibition of mammalian ACE-2 (unknown origin) using Mca-APK(Dnp) as substrate preincubated for 10 mins followed by substrate addition measured after 30 mins
Chain of Angiotensin-converting enzyme 2 (Q9BYF1 whole entry): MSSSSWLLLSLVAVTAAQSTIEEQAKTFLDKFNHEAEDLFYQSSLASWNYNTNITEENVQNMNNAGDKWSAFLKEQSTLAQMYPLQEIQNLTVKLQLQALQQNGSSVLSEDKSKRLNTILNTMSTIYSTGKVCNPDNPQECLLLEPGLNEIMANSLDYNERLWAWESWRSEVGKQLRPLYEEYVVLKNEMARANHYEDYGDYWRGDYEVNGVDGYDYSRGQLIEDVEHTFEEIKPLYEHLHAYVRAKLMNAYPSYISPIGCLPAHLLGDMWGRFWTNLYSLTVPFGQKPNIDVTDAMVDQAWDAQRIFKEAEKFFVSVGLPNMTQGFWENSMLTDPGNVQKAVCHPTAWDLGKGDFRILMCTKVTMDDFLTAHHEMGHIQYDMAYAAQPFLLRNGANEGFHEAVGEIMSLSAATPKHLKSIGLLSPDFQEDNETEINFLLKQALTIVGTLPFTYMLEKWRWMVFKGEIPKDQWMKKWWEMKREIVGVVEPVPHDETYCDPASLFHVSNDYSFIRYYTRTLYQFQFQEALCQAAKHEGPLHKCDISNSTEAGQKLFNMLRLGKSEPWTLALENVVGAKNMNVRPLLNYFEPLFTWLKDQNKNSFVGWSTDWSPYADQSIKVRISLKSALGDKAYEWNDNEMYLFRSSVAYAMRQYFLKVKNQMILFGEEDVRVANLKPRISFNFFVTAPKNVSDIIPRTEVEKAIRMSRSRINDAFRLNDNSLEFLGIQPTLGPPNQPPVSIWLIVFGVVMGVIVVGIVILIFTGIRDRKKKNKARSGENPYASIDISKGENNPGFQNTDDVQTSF

Enterobacterales [29] = assay: Potentiation of meropenem-induced antibacterial activity against Enterobacterales assessed as meropenem MIC90 at 8 ug/ml by broth microdilution method (Rvb > 32 ug/ml); assay type: functional
[30] = Clearance in rat at 100 mg/kg, iv administered as infusion for 0.5 hrs by HPLC/MS analysis; assay type: ADME, organism-based; details: in vivo
[31] = Oral bioavailability in rat at 1000 mg/kg administered via gavage by HPLC/MS analysis; assay type: ADME, organism-based; details: in vivo

For O=C(O)c1c(F)ccc2c1OB(O)[C@@H]1C[C@H]21 [XERUBORBACTAM], the MEC (Acinetobacter baumannii [1]) was 0.6 µg/mL, the MEC (Escherichia coli [2]) was 0.3 µg/mL and the MIC50 (Klebsiella pneumoniae [3]) was at most 0.06 µg/mL. It also gave an IC50 (Chymase) of over 1 mM, an MIC90 (Enterobacteriaceae [4]) of 1 µg/mL and an MIC50 (Enterobacterales [5]) of at most 0.015 µg/mL. The IC50 (Chymotrypsin) was over 1000 µM, the MIC90 (Enterobacterales [6]) was 8 µg/mL and the MEC (Klebsiella pneumoniae [7]) was 2.5 µg/mL. The Cmax [8] was 26100 ng/mL, the MEC (Escherichia coli [9]) was 0.16 µg/mL and the Activity (Klebsiella pneumoniae [10]) was -0.03 log10CFU. It also gave a Cmax [11] of 52 µg/mL, an MIC90 (Enterobacteriaceae [12]) of 0.5 µg/mL and an MEC (Enterobacter cloacae) of 0.6 µg/mL. The bioavailability [13] was 53.2%, the MIC90 (Acinetobacter baumannii [14]) was 32 µg/mL and the MIC90 (Enterobacteriaceae [15]) was 1 µg/mL. The IC50 (Cathepsin G) was 666 µM, the half-life [16] was 70.8 min and the fraction unbound [17] was 0.04. It also gave an MIC50 (Enterobacteriaceae [18]) of under 0.06 µg/mL, an MEC [19] of 0.3 µg/mL and an MIC90 (Enterobacteriaceae [20]) of 0.5 µg/mL. For the same compound, the fraction unbound [21] was 0.15, the IC50 (Prothrombin) was over 100 µM and the MIC50 (Enterobacteriaceae [22]) was 0.125 µg/mL. For the same compound, the MIC50 (Klebsiella pneumoniae [23]) was 0.125 µg/mL, the Activity (Klebsiella pneumoniae [24]) was -1.15 log10CFU and the Ki [25] was 0.29 nM. The MIC50 (Enterobacteriaceae [26]) was under 0.06 µg/mL, the MIC50 (Acinetobacter baumannii [27]) was 8 µg/mL and the IC50 [28] was over 1 mM. It also gave an MIC90 (Enterobacterales [29]) of 0.125 µg/mL, a clearance [30] of 7.83 mL/min/kg and a bioavailability [31] of 24.3%.
